Patent US4666929A, “Anthranilic acid ester derivatives and antiinflammatory and analgetic external preparations containing the same” (Shiseido Company Ltd., priority 1985, dated 1987)

Key:
[1] = test system: pain induced by the brewer's yeast; assay: Evaluation Test Example 7 (Analgetic Activity), Randall-Selitto method; type: in vivo, rat; conditions: topical, 2.5 mg/paw, 5 hours after injection of brewer's yeast
Method: This method is admitted as a standard method for evaluating non-anesthetic analgesic agent.
The test sample compounds were applied to the both foot pad of hind paws of the rats each in an application amount of 50 μl as a 2.5% ethanol solution. After one hour, 50 μl each of the ethanol solution of the sample compound was again applied and 0.1 ml of a 5% brewer's yeast/physiological saline was immediately subcutaneously applied to one foot pad of the rat as a pain inducing substance. After a predetermined time period, the weight of the pain generation was measured using a horizontal balance type presser and the decrease rate (P1) of the pain threshold value was determined. The above-mentioned evaluation test procedure was also carried out in the control rat group, except that the solvent containing no sample compounds was applied. Thus, the decrease rate (P0) of the pain threshold value in the control group was determined. The inhibition (%) of the pain induced by the brewer's yeast was calculated as follows: [formula] When this value is large, the analgetic activity is high.

[2] = test system: carrageenan foot pad edema; assay: Evaluation Test Example 4 (Antiinflammatory Activity), rat/carrageenan foot pad edema method; type: in vivo; conditions: oral, 100 mg/kg; for Prevention % (carrageenan edema): 5 hours after λ-carrageenan injection
Method: (§1) The antiinflammatory effects of the present compounds were determined according to the so-called rat/carrageenan foot pad edema method. This method is admitted as a standard test method for determining antiinflammatory effects, because this method has a high correlationship with human antiinflammatory effects.
(§2) The evaluation test was carried out using Wister male rats (i.e., body weight =110-130 g, 8 rats in each group) according to a Winter et al method set forth in "Proceedings of the Society for Experimental Biology & Medicine, 111, p 554, 1962).
(§3) The sample compounds listed in Table 4 were dispersed in a 0.5% aqueous carboxymethyl cellulose solution and orally administered in a dosage of 100 mg/kg. One hour after the administration, 0.1 ml of a 1% λ-carrageenan/physiological saline was subcutaneously applied to the foot pad of one paw of the rat as an inflammatory inducing substance. Thus, the edema was caused. The volumes of the foot pad were measured in the predetermined constant time period before and after the administration and the increase (V1) in the volume was calculated. On the other hand, the increase (V0) in the volume of the foot pad of the control rats, to which the aqueous 0.5% carboxymethyl cellulose solution containing no test sample compounds, was determined by injecting the λ-carageenan. Thus, the inhibition (%) of the carageenan edema was calculated as follows: [formula] The antiinflammatory activity is high when this value is large.
The evaluation test of 2-furanmethyl-N-(2,3-xylyl) anthranilate was carried out in the same manner as in Evaluation Test Example 3.

ICR female mice = assay: in vivo
Method: (§4) The evaluation test was carried out using ICR female mice (i.e., body weight=18 to 22 g, 10 mice in each group).
(§5) The sample compounds listed in Table 3 were dispersed in 2.0% carboxymethyl cellulose/physiological saline solution and orally administered in a given amount by a peroral syringe. After the administration, the toxic conditions were observed and the oral acute toxicity (LD50) was calculated from the death number according to a Van Der Werden method.

in vivo [3] = conditions: mouse, in vivo; oral, ICR female mice
Method: as §4, §5

UV induced erythema [4] = assay: Evaluation Test Example 6 (Antiinflammatory Activity), ultraviolet erythema method; type: in vivo, guinea pig; conditions: topical; for Prevention % (UV induced erythema): 25 μg/cm^2, 3 hours after UV irradiation
Method: (§6) Healthy Hartley strain albino guinea pigs (i.e., body weight=450-500 g, 10 pigs in each group) were used as the test animals. The back skin of the guinea pigs was clipped and shaved, and sections having a size of 1.41 cm×1.41 cm were prepared in the back skin, by using a rubber plate, symmetrically spaced from the back center line. The divided sections were irradiated with ultraviolet ray having a medium wavelength (i.e., 280-320 nm, λmax =305 nm) to induce erythema. After the UV irradiation, 10 μl of a solution of the test sample compound in olive oil was applied to the sections on one side. The formation of the erythema was observed over a period of time. The average erythema (E1) in the section to which the sample compound was applied and the average erythema (E0) in the section to which no sample compounds were applied were measured. […] [formula] When the inhibitory value (%) is large, the antiinflammatory activity of the sample compound is high.
The anti-inflammatory activity test of 2-furanmethyl-N-(2,3-xylyl)anthranilate was carried out in the same manner as in Evaluation Test Example 5.

[5] = oral administration, background art; cited from earlier work
[6] = test system: carrageenan foot pad edema; assay: Evaluation Test Example 3 (Antiinflammatory Activity), rat/carrageenan foot pad edema method; type: in vivo; conditions: oral, 100 mg/kg, 5 hours after λ-carrageenan injection
Method: as §1, §2, §3

UV induced erythema [7] = assay: Evaluation Test Example 5 (Antiinflammatory Activity), ultraviolet erythema method; type: in vivo, guinea pig; conditions: topical, 25 μg/cm^2, 3 hours after UV irradiation
Method: The evaluation test of N-(2,3-xylyl) anthranilic acid derivatives was carried out according to the so-called ultraviolet erythema method.
as §6

[8] = background art; cited from earlier work
in vivo [9] = conditions: mouse, oral, ddY male mice, 7 days of observation
Method: The evaluation test was carried out using ddY male mice (i.e., body weight =18 to 22 g, 10 mice in each group).
The sample compound listed in Table 2 was dispersed in 0.5% carboxymethyl cellulose/physiological saline solution and orally administered in a given amount by a peroral syringe. After the administration, the toxic conditions were observed and the oral acute toxicity (LD50) was calculated from the death number during 7 days of observation according to a Litchfield Wilcoxon method.

## Cc1cccc(Nc2ccccc2C(=O)OCCc2ccccn2)c1C [2-(2-pyridyl)ethyl-N-(2,3-xylyl)anthranilate]
[1]
  Inhibition % (pain induced by brewer's yeast): 45.5%

## CC(C)Cc1ccc(C(C)C(=O)OCc2ccccn2)cc1 (centres unmarked) [2-(p-isobutylphenyl)propionic acid-2-pyridylmethyl ester, reference compound]
[1]
  Inhibition % (pain induced by brewer's yeast): 39.2%

## Cc1cccc(Nc2ccccc2C(=O)OCc2ccco2)c1C [2-furanmethyl-N-(2,3-xylyl)anthranilate]
[2]
  Prevention % (carrageenan edema): 50.7%
[2]; in words
  edema inhibitory activity versus N-(2,3-xylyl)anthranilic acid: as strong as for the known N-(2,3-xylyl)anthranilic acid
ICR female mice; oral
  LD50 relative to known N-(2,3-xylyl)anthranilic acid: about 4 times higher
ICR female mice; oral acute toxicity, in words
  toxicity: very low
In vivo [3]
  LD50: 5480 mg/kg
[1]
  Inhibition % (pain induced by brewer's yeast): 56.5%
UV induced erythema [4]
  Prevention % (UV induced erythema): 54.3%
UV induced erythema [4]; 25 μg/cm^2, in words
  erythema [inhibition] versus N-(2,3-xylyl)anthranilic acid: stronger than that of the known N-(2,3-xylyl)anthranilic acid

## Cc1cccc(Nc2ccccc2C(=O)OCc2ccccn2)c1C [2-pyridylmethyl-N-(2,3-xylyl)anthranilate]
[1]
  Inhibition % (pain induced by brewer's yeast): 53.6%

## Cc1cccc(Nc2ccccc2C(=O)OCc2cccnc2)c1C [3-pyridylmethyl-N-(2,3-xylyl)anthranilate]
[1]
  Inhibition % (pain induced by brewer's yeast): 48.3%

## Cc1cccc(Nc2ccccc2C(=O)O)c1C [N-(2,3-xylyl)anthranilic acid, reference compound]
[5]
  side effects: various side effects including enterogasteric disorders, renal disorders, and vertigo occur
[6]
  Inhibition % (carrageenan edema): 56.8%
[2]
  Prevention % (carrageenan edema): 46.8%
UV induced erythema [7]
  Inhibition % (UV induced erythema): 32.8%
[1]
  Inhibition % (pain induced by brewer's yeast): 32.8%
[8]
  solubility in water, an alcohol, or an oil: very difficult to dissolve
UV induced erythema [4]
  Prevention % (UV induced erythema): 35.4%

## Cc1cccc(Nc2ccccc2C(=O)OCc2ccccn2)c1C [drawing 4]
In vivo [9]
  LD50 at 168 h: 4420 mg/kg

## Cc1cccc(Nc2ccccc2C(=O)OCc2cccnc2)c1C [drawing 5]
In vivo [9]
  LD50 at 168 h: 3820 mg/kg

## Cc1cccc(Nc2ccccc2C(=O)OCc2ccncc2)c1C [drawing 6]
In vivo [9]
  LD50 at 168 h: 4850 mg/kg

## Cc1cccc(Nc2ccccc2C(=O)OCCc2ccccn2)c1C [drawing 7]
In vivo [9]
  LD50 at 168 h: 4100 mg/kg

## Cc1cccc(Nc2ccccc2C(=O)OCCCc2cccnc2)c1C [drawing 8]
In vivo [9]
  LD50 at 168 h: 3750 mg/kg

## Cc1cccc(Nc2ccccc2C(=O)OCc2ccccn2)c1C [drawing 9]
[6]
  Inhibition % (carrageenan edema): 61.3%

## Cc1cccc(Nc2ccccc2C(=O)OCc2cccnc2)c1C [drawing 10]
[6]
  Inhibition % (carrageenan edema): 55.2%

## Cc1cccc(Nc2ccccc2C(=O)OCc2ccncc2)c1C [drawing 11]
[6]
  Inhibition % (carrageenan edema): 53.5%

## Cc1cccc(Nc2ccccc2C(=O)OCc2ccccn2)c1C [drawing 12]
UV induced erythema [7]
  Inhibition % (UV induced erythema): 47.6%

## Cc1cccc(Nc2ccccc2C(=O)OCc2cccnc2)c1C [drawing 13]
UV induced erythema [7]
  Inhibition % (UV induced erythema): 51.3%

## Cc1cccc(Nc2ccccc2C(=O)OCc2ccncc2)c1C [drawing 14]
UV induced erythema [7]
  Inhibition % (UV induced erythema): 43.1%

## Cc1cccc(Nc2ccccc2C(=O)OCCc2ccccn2)c1C [drawing 15]
UV induced erythema [7]
  Inhibition % (UV induced erythema): 35.4%

## Cc1cccc(Nc2ccccc2C(=O)OCCCc2cccnc2)c1C [drawing 16]
UV induced erythema [7]
  Inhibition % (UV induced erythema): 33.2%
